Measurements published in PubChem BioAssay AID328 (DTP/NCI, 2004).
Values joined by “and” are separate entries in the source; they are usually repeats but may differ in a detail not shown here. Identical values can stand only once. Inconclusive results and toxic doses are left out.

Tested on: BDF1 mice, P388 leukemia ip, median survival T/C
Assay: NCI In Vivo Anticancer Drug Screen. Data for tumor model P388 Leukemia (intraperitoneal) in B6D2F1 (BDF1) mice
Details: endpoint: median survival time, higher = longer survival
Procedure, shortened: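 Mice carrying the transplantable tumour receive compound or vehicle. Survival is followed in each arm, and the treated measure is divided by the vehicle measure.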

[1] = dose: 100.0 mg/kg/injection, schedule: Q01DX001 (ip), vehicle: Klucel (hydroxypropylcellulose) (HPC)
[2] = dose: 100.0 mg/kg/injection, schedule: Q01DX009 (ip), vehicle: Klucel (hydroxypropylcellulose) (HPC)
[3] = dose: 100.0 mg/kg/injection, schedule: Q04DX003 (ip), vehicle: Klucel (hydroxypropylcellulose) (HPC)
[4] = dose: 200.0 mg/kg/injection, schedule: Q01DX001 (ip), vehicle: Klucel (hydroxypropylcellulose) (HPC)
[5] = dose: 200.0 mg/kg/injection, schedule: Q04DX003 (ip), vehicle: Klucel (hydroxypropylcellulose) (HPC)
[6] = dose: 400.0 mg/kg/injection, schedule: Q01DX001 (ip), vehicle: Klucel (hydroxypropylcellulose) (HPC)
[7] = dose: 400.0 mg/kg/injection, schedule: Q04DX003 (ip), vehicle: Klucel (hydroxypropylcellulose) (HPC)
[8] = dose: 12.5 mg/kg/injection, schedule: Q01DX009 (ip), vehicle: Klucel (hydroxypropylcellulose) (HPC)
[9] = dose: 25.0 mg/kg/injection, schedule: Q01DX009 (ip), vehicle: Klucel (hydroxypropylcellulose) (HPC)
[10] = dose: 100.0 mg/kg/injection, schedule: Q01DX009 (ip), vehicle: saline with Tween-80
[11] = dose: 100.0 mg/kg/injection, schedule: Q04DX003 (ip), vehicle: saline with Tween-80
[12] = dose: 200.0 mg/kg/injection, schedule: Q01DX009 (ip), vehicle: saline with Tween-80
[13] = dose: 200.0 mg/kg/injection, schedule: Q04DX003 (ip), vehicle: saline with Tween-80
[14] = dose: 400.0 mg/kg/injection, schedule: Q04DX003 (ip), vehicle: saline with Tween-80
[15] = dose: 25.0 mg/kg/injection, schedule: Q01DX009 (ip), vehicle: saline with Tween-80
[16] = dose: 50.0 mg/kg/injection, schedule: Q01DX009 (ip), vehicle: saline with Tween-80
[17] = dose: 12.5 mg/kg/injection, schedule: Q01DX009 (ip), vehicle: saline with Tween-80
[18] = dose: 50.0 mg/kg/injection, schedule: Q04DX003 (ip), vehicle: saline with Tween-80
[19] = dose: 25.0 mg/kg/injection, schedule: Q04DX003 (ip), vehicle: saline with Tween-80
[20] = dose: 100.0 mg/kg/injection, schedule: Q04DX003 (ip), vehicle: saline
[21] = dose: 400.0 mg/kg/injection, schedule: Q04DX003 (ip), vehicle: saline

For `COC(OC)c1[nH]c(=S)[nH]c(=O)c1Cc1cccc(Cl)c1`, the T/C [1] was 109 % of control, the T/C [2] was 122 % of control and the T/C [3] was 113 % of control. For the same molecule, the T/C [4] was 104 % of control, the T/C [5] was 100 % of control and the T/C [6] was 104 % of control. The T/C (dose: 400.0 mg/kg/injection, schedule: Q01DX009 (ip), vehicle: Klucel (hydroxypropylcellulose) (HPC)) was 100 % of control and the T/C [7] was 95 % of control.

`C[C@]12CCC(=O)C=C1CC[C@@H]1[C@@H]2[C@@H](O)C[C@@]2(C)[C@H]1CC[C@]2(O)C(=O)COC(=O)CCC1CCCC1` was tested, and the T/C [8] was 118 % of control, the T/C [9] was 113 % of control and the T/C (dose: 50.0 mg/kg/injection, schedule: Q01DX009 (ip), vehicle: Klucel (hydroxypropylcellulose) (HPC)) was 100 % of control. The T/C [3] was 123 % of control, the T/C [5] was 109 % of control and the T/C [7] was 109 % of control.

`C/C=C1/CN(C)C2Cc3c([nH]c4ccccc34)C(c3cc4c5c([nH]c4cc3OC)C3(C(=O)OC)CC4CC(CC)C3N(CC5)C4)CC1C2C(=O)OC` (configuration not stated) was tested, and the T/C (dose: 1.3 mg/kg/injection, schedule: Q01DX009 (ip), vehicle: alcohol) was 88 % of control, the T/C (dose: 4.0 mg/kg/injection, schedule: Q01DX009 (ip), vehicle: alcohol) was 87 % of control and the T/C (dose: 12.0 mg/kg/injection, schedule: Q01DX009 (ip), vehicle: alcohol) was 88 % of control.

`COc1ccc2c(c1OC)CCN1C3=C(CC4(CC3)OCCO4)C(=O)CC21` (configuration not stated) was tested, and the T/C (dose: 100.0 mg/kg/injection, schedule: Q04DX003 (ip), vehicle: saline sonified) was 105 % of control, the T/C (dose: 200.0 mg/kg/injection, schedule: Q04DX003 (ip), vehicle: saline sonified) was 100 % of control and the T/C (dose: 400.0 mg/kg/injection, schedule: Q04DX003 (ip), vehicle: saline sonified) was 90 % of control.

In the case of `Cc1ccc(C)c(CCCC(=O)O)c1`, the T/C [10] is reported as 95 % of control, the T/C [11] is reported as 100 % of control and the T/C [12] is reported as 109 % of control. The T/C [13] was 104 % of control and the T/C [14] was 108 % of control.

`O=C(O)c1cc(Br)cc(SSc2cc(Br)cc(C(=O)O)c2O)c1O` was tested, and the T/C [15] was 103 % of control, the T/C [16] was 94 % of control and the T/C [10] was 106 % of control.

`CCCC(C(=O)OCCN1CCCC12CCCCC2)C1CCCC1` (configuration not stated) was tested, and the T/C [17] was 107 % of control, the T/C [15] was 108 % of control and the T/C [16] was 119 % of control.

`COc1cc(C=Nc2cc(Cl)ccc2-n2ccnc2C)ccc1N(CCCl)CCCl` was tested, and the T/C (dose: 21.0 mg/kg/injection, schedule: Q04DX003 (ip), vehicle: saline with Tween-80) was 170 % of control, the T/C (dose: 33.0 mg/kg/injection, schedule: Q04DX003 (ip), vehicle: saline with Tween-80) was 235 % of control and the T/C [18] was 170 % of control. The T/C (dose: 75.0 mg/kg/injection, schedule: Q04DX003 (ip), vehicle: saline with Tween-80) was 178 % of control.

`CCCCCCCCCCCCCCCC(=O)N1CCC(N2CCCCC2)CC1` was tested, and the T/C [4] was 109 % of control and the T/C [6] was 90 % of control.

`CCOC(=O)c1cnn2c(SC)ncnc12` was tested, and the T/C [17] was 99 % of control, the T/C [15] was 111 % of control and the T/C [19] was 109 % of control. The T/C [16] was 101 % of control, the T/C [18] was 100 % of control and the T/C [10] was 99 % of control. For the same molecule, the T/C [11] was 109 % of control.

`COC1CCC2=C(C1)C(=O)CC1c3ccccc3CN21` (configuration not stated) was tested, and the T/C [19] was 100 % of control and the T/C [18] was 104 % of control.

For `O=c1[nH]cc(F)c(=O)[nH]1.[Tl]`, the T/C (dose: 6.25 mg/kg/injection, schedule: Q01DX009 (ip), vehicle: Klucel (hydroxypropylcellulose) (HPC)) was 117 % of control, the T/C [8] was 102 % of control and 110 % of control and the T/C [9] was 87 % of control. For the same molecule, the T/C [2] was 91 % of control.

In the case of `C1O[C@@H]1[C@@H]1CO1`, the T/C (dose: 100.0 mg/kg/injection, schedule: Q01DX006 (ip), vehicle: water) is reported as 100 % of control, the T/C (dose: 100.0 mg/kg/injection, schedule: Q01DX010 (ip), vehicle: water) is reported as 104 % of control and 120 % of control and the T/C (dose: 200.0 mg/kg/injection, schedule: Q01DX006 (ip), vehicle: water) is reported as 100 % of control. For the same molecule, the T/C (dose: 200.0 mg/kg/injection, schedule: Q01DX010 (ip), vehicle: water) was 150 % of control, the T/C (dose: 225.0 mg/kg/injection, schedule: Q01DX010 (ip), vehicle: water) was 113 % of control and the T/C (dose: 300.0 mg/kg/injection, schedule: Q01DX006 (ip), vehicle: water) was 100 % of control. For the same molecule, the T/C (dose: 300.0 mg/kg/injection, schedule: Q01DX010 (ip), vehicle: water) was 100 % of control, the T/C (dose: 335.0 mg/kg/injection, schedule: Q01DX010 (ip), vehicle: water) was 90 % of control and the T/C (dose: 400.0 mg/kg/injection, schedule: Q01DX006 (ip), vehicle: water) was 100 % of control. For the same molecule, the T/C (dose: 400.0 mg/kg/injection, schedule: Q01DX010 (ip), vehicle: water) was 86 % of control and 95 % of control and the T/C (dose: 600.0 mg/kg/injection, schedule: Q01DX010 (ip), vehicle: water) was 90 % of control.

`CCN1CCC(OC(=O)c2ccccc2)(c2nccc3ccccc23)CC1` was tested, and the T/C [17] was 102 % of control, the T/C [15] was 111 % of control and the T/C [16] was 124 % of control.

For `COc1cc(O)c2c(c1)C(=O)c1cc(C)cc(O)c1C2=O`, the T/C (dose: 2.5 mg/kg/injection, schedule: Q01DX009 (ip), vehicle: saline with Tween-80) was 100 % of control, the T/C (dose: 5.0 mg/kg/injection, schedule: Q01DX009 (ip), vehicle: saline with Tween-80) was 100 % of control and the T/C (dose: 10.0 mg/kg/injection, schedule: Q01DX009 (ip), vehicle: saline with Tween-80) was 95 % of control. For the same molecule, the T/C (dose: 20.0 mg/kg/injection, schedule: Q01DX009 (ip), vehicle: saline with Tween-80) was 100 % of control.

`O=C1c2ccccc2C(=O)C(Cl)C1Cl` (configuration not stated) was tested, and the T/C (dose: 1.56 mg/kg/injection, schedule: Q01DX009 (ip), vehicle: saline with Tween-80) was 117 % of control, the T/C (dose: 3.13 mg/kg/injection, schedule: Q01DX009 (ip), vehicle: saline with Tween-80) was 103 % of control and the T/C (dose: 6.25 mg/kg/injection, schedule: Q01DX009 (ip), vehicle: saline with Tween-80) was 101 % of control.

`O=c1oc2cc(O)ccc2c2c1CCCC2` was tested, and the T/C [3] was 95 % of control, the T/C [5] was 95 % of control and the T/C [7] was 100 % of control.

In the case of `CCCCCCC(=O)/C=C/c1cccc(Cl)c1`, the T/C [20] is reported as 88 % of control and the T/C [21] is reported as 100 % of control.

`O=C1C2C(C(=O)N1c1ccc(OCc3ccccc3)cc1)C1c3ccccc3C2C2CCCCN21` (configuration not stated) was tested, and the T/C (dose: 3.13 mg/kg/injection, schedule: Q04DX003 (ip), vehicle: water) was 93 % of control, the T/C (dose: 6.25 mg/kg/injection, schedule: Q04DX003 (ip), vehicle: water) was 101 % of control and the T/C (dose: 12.5 mg/kg/injection, schedule: Q04DX003 (ip), vehicle: water) was 97 % of control. The T/C (dose: 25.0 mg/kg/injection, schedule: Q04DX003 (ip), vehicle: water) was 101 % of control and the T/C (dose: 50.0 mg/kg/injection, schedule: Q04DX003 (ip), vehicle: water) was 99 % of control.

In the case of `C[Si](C)(C)C1([Si](C)(C)C)CO1`, the T/C [20] is reported as 108 % of control, the T/C (dose: 200.0 mg/kg/injection, schedule: Q04DX003 (ip), vehicle: saline) is reported as 109 % of control and the T/C [21] is reported as 108 % of control.

In the case of `CCCCOc1ccc(C(=O)N/N=C(\C)[C@]2(O)Cc3c(O)c4c(c(O)c3[C@@H](OC3CC(N)C(O)C(C)O3)C2)C(=O)c2c(OC)cccc2C4=O)cc1` (some centres not stated), the T/C (dose: 1.0 mg/kg/injection, schedule: Q01DX009 (ip), vehicle: water) is reported as 173 % of control, the T/C (dose: 2.0 mg/kg/injection, schedule: Q01DX009 (ip), vehicle: water) is reported as 157 % of control and 173 % of control and the T/C (dose: 4.0 mg/kg/injection, schedule: Q01DX009 (ip), vehicle: water) is reported as 169 % of control.

With `Nc1nc(N)c(-c2ccccc2)c(C(=O)O)n1` the T/C [1] was 109 % of control, the T/C [4] was 118 % of control and the T/C [6] was 113 % of control.

In the case of `N#CCC(NC(=O)OCc1ccccc1)C(=O)OCc1ccccc1` (configuration not stated), the T/C [15] is reported as 100 % of control, the T/C [16] is reported as 94 % of control and the T/C [18] is reported as 96 % of control. The T/C [10] was 88 % of control, the T/C [11] was 105 % of control and the T/C [12] was 96 % of control. The T/C [13] was 94 % of control, the T/C (dose: 400.0 mg/kg/injection, schedule: Q01DX009 (ip), vehicle: saline with Tween-80) was 96 % of control and the T/C [14] was 105 % of control.

For `O=C1Nc2ccc(Br)cc2C1=Nc1ccc(Cl)cc1`, the T/C [16] was 101 % of control, the T/C [10] was 105 % of control and the T/C [12] was 118 % of control.
